Assay [1] concerns Citrobacter freundii 1982. The assay can be described thus: MIC in vitro of a 1:4 combination of ceftriaxone with a compound of formula I (Test D). Type of assay: cell-based. To be noted: 1:4 combination of ceftriaxone with the compound; for MIC C. freundii 1982 (D): Table 4, test D; for MIC C. freundii 1982: Table 2. As for the experimental part:
The minimum inhibitory concentration in vitro ([…]) of a 1:4 combination of ceftriaxone with a compound of formula I against Citrobacter freundii 1982 was measured and compiled in Table 2 hereinafter.

Assay [2] concerns E. coli 1346. The assay can be described thus: Antibacterial activity of the products per se, serial dilution method in liquid medium (Test E). Type of assay: cell-based. The following applies: product per se; for MIC E. coli 1346 (E): Table 4, test E; for MIC E. coli 1346: Table 3, liquid medium. The text has this:
The antibacterial activity of the products per se is illustrated on the basis of Table 3 hereinafter, the minimum inhibitory concentration […] in vitro against E. coli 1346 being determined using the serial dilution method in liquid medium: […]

In brackets after ≈: the same amount, converted by molar mass. Where a name gives a salt, the structure may show the parent alone. Some results are limits rather than exact numbers.

As to `C=CC1=C(C(=O)O)N2C(=O)[C@@H]3[C@H]2[C@H](C1)CN3C(C)=O` [Example 47, (1aS,3aR, 6bR)-2-Acetyl-1-oxo-5-vinyl-1a,2,3,3a,4,6b-hexahydro-1H-2,6a-diazacyclobut[cd]indene-6-carboxylic acid sodium salt], in assay [1], the “MIC C. freundii 1982 (D)” value is 4 µg/mL. In assay [2], the “MIC E. coli 1346 (E)” value amounted to 8 µg/mL.
In the same order, the values of `CC(=O)OCC1=C(C(=O)O)N2C(=O)[C@@H]3[C@H]2[C@H](C1)CN3C(=O)C(F)(F)F` [25(d), (1aS,3aR,6bR)-5-Acetoxymethyl-2-trifluoroacetyl-1-oxo-1a,2,3,3a,4,6b-hexahydro-1H-2,6a-diazacyclobut[cd]indene-6-carboxylic acid sodium salt] are 0.5 µg/mL and 4 µg/mL.
In the same order, the values of `[N-]=[N+]=NCC1=C(C(=O)O)N2C(=O)[C@@H]3[C@H]2[C@H](C1)CN3C(=O)Nc1ccc(O)cc1` [Example 82, (1aS,3aR,6bR)-5-Azidomethyl-2-(4-hydroxy-phenylcarbamoyl)-1-oxo-1a,2,3,3a,4,6b-hexahydro-1H-2,6a-diazacyclobut[cd]indene-6-carboxylic acid sodium salt] are 0.25 µg/mL and 16 µg/mL.
In the case of `O=C(O)C1=C(CSc2nnnn2CC(=O)N2CCOCC2)S[C@@H]2CN[C@@H]3C(=O)N1[C@@H]32` [40(g), (1aS,3aR,6bS)-5-[1-(2-Morpholin-4-yl-2-oxo-ethyl)-1H-tetrazol-5-ylsulphanylmethyl]-1-oxo-4-thia-1,1a,2,3,3a,6b-hexahydro-2,6a-diazacyclobut[cd]indene-6-carboxylic acid], in assay [1], the “MIC C. freundii 1982 (D)” value came out at 4 µg/mL. Moreover, the “MIC E. coli 1346 (E)” value in assay [2] is > 32 µg/mL.
Regarding `Cn1nnnc1SC1=C(C(=O)O)N2C(=O)[C@@H]3[C@H]2[C@H](C1)CN3C(=O)Nc1ccc(O)cc1` [Example 3(a), (1aS,3aR,6bR)-2-(4-Hydroxy-phenylcarbamoyl)-5-(1-methyl-1H-tetrazol-5-ylsulphanyl)-1-oxo-1a,2,3,3a,4,6b-hexahydro-1H-2,6a-diazacyclobut[cd]indene-6-carboxylic acid sodium salt], the “MIC C. freundii 1982” value in assay [1] amounted to 0.25 µg/mL. Besides, the “MIC E. coli 1346” value in assay [2] came to 128 µg/mL.
`Cn1nnnc1SCC1=C(C(=O)O)N2C(=O)[C@@H]3[C@H]2[C@H](C1)CN3C(=O)NCCC(=O)OC(C)(C)C` [18(f), (1aS,3aR,6bR)-2-(2-t-Butoxycarbonyl-ethylcarbarmoyl)-5-(1-methyl-1H-tetrazol-5-ylsulphanylmethyl)-1-oxo-1a,2,3,3a,4,6b-hexahydro-1H-2,6a-diazacyclobut[cd]indene-6-carboxylic acid sodium salt]: in assay [1], the “MIC C. freundii 1982 (D)” value worked out at 1 µg/mL. Also, the “MIC E. coli 1346 (E)” value in assay [2] was 4 µg/mL.
In the same order, the values of `Nc1nnc(SCC2=C(C(=O)O)N3C(=O)[C@H]4NC[C@@H](S2)[C@H]43)s1` [40(e), (1aS,3aR,6bS)-5-(5-Amino-1,3,4-thiadiazol-2-ylsulphanylmethyl)-1-oxo-4-thia-1,1a,2,3,3a,6b-hexahydro-2,6a-diazacyclobut[cd]indene-6-carboxylic acid] are 1 µg/mL and 32 µg/mL (≈ 89.5 µM).
In the same order, the values of `N#CCC(=O)N1C[C@H]2CC(Sc3nnc(N)s3)=C(C(=O)O)N3C(=O)[C@@H]1[C@@H]23` [3(ag), (1aS,3aR,6bR)-5-(5-Amino-1,3,4-thiadiazol-2-ylsulphanyl)-2-cyanoacetyl-1-oxo-1a,2,3,3a,4,6b-hexahydro-1H-2,6a-diazacyclobut[cd]indene-6-carboxylic acid sodium salt] are 2 µg/mL and 8 µg/mL.
Regarding `Cn1nnnc1SCC1=C(C(=O)O)N2C(=O)[C@@H]3[C@H]2[C@H](C1)CN3C(=O)N[C@H]1CCNC1=O` [18(c), (1aS,3aR,6bR)-2-[(S)-2-Oxo-pyrrolidin-3-ylcarbamoyl)-5-(1-methyl-1H-tetrazol-5-ylsulphanylmethyl]-1-oxo-1a,2,3,3a,4,6b-hexahydro-1H-2,6a-diazacyclobut[cd]indene-6-carboxylic acid sodium salt], in assay [1], the “MIC C. freundii 1982” value came out at 0.25 µg/mL. In addition, the “MIC E. coli 1346” value in assay [2] worked out at 32 µg/mL.
Turning to `CC(=O)N1C[C@H]2CC(COC(=O)NC3CC3)=C(C(=O)O)N3C(=O)[C@@H]1[C@@H]23` [94(a), (1aS,3aR,6bR)-2-Acetyl-5-cyclopropylcarbamoyloxymethyl-1-oxo-1a,2,3,3a,4,6b-hexahydro-1H-2,6a-diazacyclobut[cd]indene-6-carboxylic acid sodium salt], the “MIC C. freundii 1982 (D)” value in assay [1] came out at 2 µg/mL. In addition, the “MIC E. coli 1346 (E)” value in assay [2] is 2 µg/mL.
For the compound `CS(=O)(=O)OC1=C(C(=O)O)N2C(=O)[C@@H]3[C@H]2[C@H](C1)CN3C(=O)NC1CCSC1=O` (mixture of isomers) [9(f), (1aS,3aR,6bR)-5-Methylsulphonyloxy-1-oxo-2-[(R) and [(S)-2-oxo-tetrahydro-thien-3-ylcarbamoyl]-1a,2,3,3a,4,6b-hexahydro-1H-2,6a-diazacyclobut[cd]indene-6-carboxylic acid sodium salt], the “MIC C. freundii 1982” value in assay [1] stood at 0.12 µg/mL. For the same compound, the “MIC E. coli 1346” value in assay [2] is 32 µg/mL.
Regarding `NC(=O)OCC1=C(C(=O)O)N2C(=O)[C@@H]3[C@H]2[C@H](C1)CN3CC(=O)Nc1ccc(O)cc1` [Example 59(a), (1aS,3aR,6bR)-5-Carbamoyloxymethyl-2-(4-hydroxyphenylcarbamoylmethyl)-1-oxo-I a,2,3,3a,4,6b-hexahydro-1H-2,6a-diazacyclobut[cd]indene-6-carboxylic acid sodium salt], the “MIC C. freundii 1982 (D)” value in assay [1] worked out at 1 µg/mL. The “MIC E. coli 1346 (E)” value in assay [2] is 2 µg/mL.
Consider `O=C(NCc1ccc(O)cc1)OCC1=C(C(=O)O)N2C(=O)[C@H]3NC[C@@H](C1)[C@H]32` [Example 101, (1aS,3aR,6bR)-5-[(4-Hydroxy-benzyl)-carbamoyloxymethyl]-1-oxo-1a,2,3,3a,4,6b-hexahydro-1H-2,6a-diazacyclobut[cd]indene-6-carboxylic acid trifluoroacetate], for which, in assay [1], the “MIC C. freundii 1982 (D)” value stood at 1 µg/mL. For the same compound, the “MIC E. coli 1346 (E)” value in assay [2] was 2 µg/mL.
In the same order, the values of `CNC(=O)Cn1nnnc1SCC1=C(C(=O)O)N2C(=O)[C@H]3NC[C@@H](C1)[C@H]32` [Example 73, (1aS,3aR,6bR)-5-(1-Methylcarbamoylmethyl-1H-tetrazol-5-ylsulphahylmethyl)-1-oxo-1a,2,3,3a,4,6b-hexahydro-1H-2,6 a-diazacyclobut[cd]indene-6-carboxylicacid trifluoroacetate] are 1 µg/mL and 1 µg/mL.
Consider `CS(=O)(=O)OC1=C(C(=O)O)N2C(=O)[C@H]3NC[C@@H](C1)[C@H]32` [Example 8, (1aS,3aR,6bR)-5-Methylsulphonyloxy-1-oxo-1a,2,3,3a,4,6b-hexahydro-1H-2,6a-diazacyclobut[cd]indene-6-carboxylic acid trifluoroacetate], for which, in assay [1], the “MIC C. freundii 1982” value was 1 µg/mL. Besides, the “MIC E. coli 1346” value in assay [2] was 2 µg/mL.
On to `O=C(O)C1=C(CO)S[C@@H]2CN(C(=O)Nc3ccc(O)cc3)[C@@H]3C(=O)N1[C@@H]32` [41(d) Byproduct], for which, in assay [1], the “MIC C. freundii 1982 (D)” value turned out to be 1 µg/mL. Moreover, the “MIC E. coli 1346 (E)” value in assay [2] was > 32 µg/mL.
As to `NC(=O)CSC1=C(C(=O)O)N2C(=O)[C@@H]3[C@H]2[C@H](C1)CN3C(=O)C(F)(F)F` [3(al), (1aS,3aR,6bR)-5-Carbamoylmethylsulphanyl-1-oxo-2-trifluoroacetyl-1a,2,3,3a,4,6b-hexahydro-1H-2,6a-diazacyclobut[cd]indene-6-carboxylic acid sodium salt], the “MIC C. freundii 1982 (D)” value in assay [1] worked out at 2 µg/mL. In addition, the “MIC E. coli 1346 (E)” value in assay [2] came to 8 µg/mL.
With `Cc1nnc(SCC2=C(C(=O)O)N3C(=O)[C@H]4NC[C@@H](O2)[C@H]43)s1` [Example 29(a), (1aS,3aR,6bS)-5-(5-Methyl-1,3,4-thiadiazol-2-ylsulphanylmethyl)-1-oxo-1,1a,2,3,3a,6b-hexahydro-4-oxa-2,6a-diazacyclobut[cd]indene-6-carboxylic acid sodium salt], in assay [1], the “MIC C. freundii 1982 (D)” value worked out at 1 µg/mL. Also, in assay [2], the “MIC E. coli 1346 (E)” value was found to be 1 µg/mL.
With `O=C(O)C1=C(CSc2nc[nH]n2)C[C@@H]2CN[C@@H]3C(=O)N1[C@H]23` [Example 75, (1aS,3aR,6 bR)-1-Oxo-5-(1H-1,2,4-triazol-3-ylsulphanylmethyl)-1a,2,3,3a,4,6b-hexahydro-1H-2,6a-diazacyclobut[cd]indene-6-carboxylic acid trifluoroacetate], the “MIC C. freundii 1982 (D)” value in assay [1] is 1 µg/mL. For the same compound, in assay [2], the “MIC E. coli 1346 (E)” value came out at 4 µg/mL.
As for `C=CC1=C(C(=O)O)N2C(=O)[C@@H]3[C@H]2[C@H](C1)CN3C(=O)Nc1ccc(O)cc1` [46(a), (1aS,3aR,6bR)-2-(4-Hydroxy-phenylcarbamoyl)-1-oxo-5-vinyl-1a,2,3,3a,4,6b-hexahydro-1H-2,6a-diazacyclobut[cd]indene-6-carboxylic acid sodium salt], in assay [1], the “MIC C. freundii 1982 (D)” value is 1 µg/mL. Further, the “MIC E. coli 1346 (E)” value in assay [2] is 64 µg/mL.
In the same order, the values of `NC(=O)OCC1=C(C(=O)O)N2C(=O)[C@@H]3[C@H]2[C@H](C1)CN3C(=O)NCc1ccc(S(N)(=O)=O)cc1` [27(e), (1aS,3aR,6bR)-5-Carbamoyloxymethyl-2-(4-sulphamoylbenzylcarbamoyl)-1-oxo-1a,2,3,3a,4,6b-hexahydro-1H-2,6a-diazacyclobut[cd]indene-6-carboxylic acid sodium salt] are 0.5 µg/mL and 32 µg/mL.
As to `O=C([O-])C[n+]1ccc(SCC2=C(C(=O)O)N3C(=O)[C@H]4NC[C@@H](C2)[C@H]43)cc1` [Example 50, (1aS,3aR,6bR)-[4-(6-Carboxy-1-oxo-1a,2,3,3a,4,6b-hexahydro-1H-2,6a-diazacyclobut[cd]indene-5-ylmethylsulphanyl)-pyridin-1-ylio]acetatetrifluoroacetate], the “MIC C. freundii 1982 (D)” value in assay [1] was 2 µg/mL. The “MIC E. coli 1346 (E)” value in assay [2] turned out to be 4 µg/mL (≈ 10.7 µM).
